# Measured values: ChEMBL document CHEMBL5537113, “Discovery of 1,2-diaryl-3-oxopyrazolidin-4-carboxamides as a new class of MurA enzyme inhibitors and characterization of their antibacterial activity” (Eur J Med Chem, 2023)
# Experiments:
# [1] = test system: Enterococcus faecalis; experiment: Antibacterial activity against Enterococcus faecalis ATCC 51299 assessed as reduction in microbial growth by CLSI based broth microdilution method; assay type: functional
# [2] = test system: Clostridioides difficile; experiment: Antibacterial activity against Clostridioides difficile NR-13427 assessed as reduction in microbial growth incubated for 48 hrs by broth microdilution method; assay type: functional
# [3] = test system: Bifidobacterium longum; experiment: Antibacterial activity against Bifidobacterium longum HM 846 assessed as reduction in microbial growth incubated for 48 hrs by broth microdilution method; assay type: functional
# [4] = molecular target: UDP-N-acetylglucosamine 1-carboxyvinyltransferase (Escherichia coli K-12, UniProt P0A749); experiment: Inhibition of Escherichia coli K12 His-tagged MurA expressed in Escherichia coli BL21 cells using UNAG as substrate pre incubated for 15 mins followed by substrate addition and measured after 15 mins by microplate reader analysis
# Sequence of UDP-N-acetylglucosamine 1-carboxyvinyltransferase (P0A749 whole entry): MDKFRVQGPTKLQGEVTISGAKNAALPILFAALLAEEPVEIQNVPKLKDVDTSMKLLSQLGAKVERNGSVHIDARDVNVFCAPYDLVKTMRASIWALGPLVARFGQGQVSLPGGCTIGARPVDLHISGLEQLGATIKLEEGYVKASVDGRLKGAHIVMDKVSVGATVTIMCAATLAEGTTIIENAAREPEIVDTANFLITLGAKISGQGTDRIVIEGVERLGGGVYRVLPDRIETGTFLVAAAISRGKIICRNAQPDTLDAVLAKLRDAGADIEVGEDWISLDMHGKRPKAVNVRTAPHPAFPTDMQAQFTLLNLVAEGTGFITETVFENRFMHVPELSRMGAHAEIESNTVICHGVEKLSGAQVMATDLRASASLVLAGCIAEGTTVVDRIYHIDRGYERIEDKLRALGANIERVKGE
# [5] = test system: Clostridioides difficile; experiment: Antibacterial activity against Clostridioides difficile NR-49277 assessed as reduction in microbial growth incubated for 48 hrs by broth microdilution method; assay type: functional
# [6] = test system: Clostridioides difficile; experiment: Antibacterial activity against Clostridioides difficile NR-49278 assessed as reduction in microbial growth incubated for 48 hrs by broth microdilution method; assay type: functional
# [7] = test system: Escherichia coli; experiment: Antibacterial activity against Escherichia coli harboring tolC deletion mutant assessed as reduction in microbial growth incubated for 16 hrs by serial dilution method; assay type: functional
# [8] = test system: Clostridioides difficile; experiment: Antibacterial activity against Clostridioides difficile NR-49285 assessed as reduction in microbial growth incubated for 48 hrs by broth microdilution method; assay type: functional
# [9] = test system: Clostridioides difficile; experiment: Antibacterial activity against Clostridioides difficile NR-49291 assessed as reduction in microbial growth incubated for 48 hrs by broth microdilution method; assay type: functional
# [10] = test system: Clostridioides difficile; experiment: Antibacterial activity against Clostridioides difficile NR-49279 assessed as reduction in microbial growth incubated for 48 hrs by broth microdilution method; assay type: functional
# [11] = test system: Bacteroides fragilis; experiment: Antibacterial activity against Bacteroides fragilis HM 20 assessed as reduction in microbial growth incubated for 48 hrs by broth microdilution method; assay type: functional
# [12] = test system: Clostridioides difficile; experiment: Antibacterial activity against Clostridioides difficile NR-13436 assessed as reduction in microbial growth incubated for 48 hrs by broth microdilution method; assay type: functional
# [13] = test system: Bacteroides fragilis; experiment: Antibacterial activity against Bacteroides fragilis HM 719 assessed as reduction in microbial growth incubated for 48 hrs by broth microdilution method; assay type: functional
# [14] = test system: Clostridioides difficile; experiment: Antibacterial activity against Clostridioides difficile NR-49288 assessed as reduction in microbial growth incubated for 48 hrs by broth microdilution method; assay type: functional
# [15] = test system: Clostridioides difficile; experiment: Antibacterial activity against Clostridioides difficile NR-49282 assessed as reduction in microbial growth incubated for 48 hrs by broth microdilution method; assay type: functional
# [16] = test system: Clostridioides difficile; experiment: Selectivity ratio of MBC for antibacterial activity against Clostridioides difficile ATCC 43255 to MIC for antibacterial activity against Clostridioides difficile […]; assay type: functional
# [17] = test system: Bacteroides fragilis; experiment: Antibacterial activity against Bacteroides fragilis HM 709 assessed as reduction in microbial growth incubated for 48 hrs by broth microdilution method; assay type: functional
# [18] = test system: Staphylococcus aureus; experiment: Antibacterial activity against vancomycin resistant Staphylococcus aureus 10 assessed as reduction in microbial growth by CLSI based broth microdilution method; assay type: functional
# [19] = test system: Lactobacillus crispatus; experiment: Antibacterial activity against Lactobacillus crispatus HM 103 assessed as reduction in microbial growth incubated for 48 hrs by broth microdilution method; assay type: functional
# [20] = Stability of compound in Staphylococcus aureus Newman cell lysate at 10 uM incubated for 24 hrs at 37 degC by UHPLC-MS/MS analysis; assay type: ADME, subcellular
# [21] = test system: Lactobacillus gasseri; experiment: Antibacterial activity against Lactobacillus gasseri HM 403 assessed as reduction in microbial growth incubated for 48 hrs by broth microdilution method; assay type: functional
# [22] = test system: Clostridioides difficile; experiment: Antibacterial activity against Clostridioides difficile NR-32889 assessed as reduction in microbial growth incubated for 48 hrs by broth microdilution method; assay type: functional
# [23] = test system: Staphylococcus aureus; experiment: Antibacterial activity against Staphylococcus aureus Newman D2C NCTC 10833 assessed as reduction in microbial growth incubated for 16 hrs by serial dilution method; assay type: functional
# [24] = test system: Clostridioides difficile; experiment: Bactericidal activity against Clostridioides difficile NR-49284 assessed as reduction in microbial growth by broth microdilution method; assay type: functional
# [25] = molecular target: UDP-N-acetylglucosamine 1-carboxyvinyltransferase (Escherichia coli K-12) (UniProt P0A749); experiment: Inhibition of Escherichia coli K12 His-tagged MurA expressed in Escherichia coli BL21 cells at 50 uM using UNAG as substrate pre incubated for 15 mins followed by substrate addition and measured after 15 mins by microplate reader analysis relative to control; conditions: time 30.0 min
# Sequence of UDP-N-acetylglucosamine 1-carboxyvinyltransferase (Escherichia coli K-12) (P0A749 whole entry): as above
# [26] = test system: Clostridioides difficile; experiment: Bactericidal activity against Clostridioides difficile NR-32895 assessed as reduction in microbial growth by broth microdilution method; assay type: functional
# [27] = test system: Streptococcus pneumoniae; experiment: Antibacterial activity against Streptococcus pneumoniae ATCC 700677 assessed as reduction in microbial growth by CLSI based broth microdilution method; assay type: functional
# [28] = test system: Clostridioides difficile; experiment: Selectivity ratio of MBC for antibacterial activity against Clostridioides difficile NR-32904 to MIC for antibacterial activity against Clostridioides difficile NR-32904; assay type: functional
# [29] = test system: Clostridioides difficile; experiment: Bactericidal activity against Clostridioides difficile ATCC BAA1870 assessed as reduction in microbial growth by broth microdilution method; assay type: functional
# [30] = test system: Clostridioides difficile; experiment: Antibacterial activity against Clostridioides difficile NR-49283 assessed as reduction in microbial growth incubated for 48 hrs by broth microdilution method; assay type: functional
# [31] = test system: Staphylococcus aureus; experiment: Antibacterial activity against methicillin resistant Staphylococcus aureus USA300 assessed as reduction in microbial growth by CLSI based broth microdilution method; assay type: functional
# [32] = test system: Clostridioides difficile; experiment: Antibacterial activity against Clostridioides difficile HM-88 assessed as reduction in microbial growth incubated for 48 hrs by broth microdilution method; assay type: functional
# [33] = test system: Lactobacillus crispatus; experiment: Antibacterial activity against Lactobacillus crispatus HM 420 assessed as reduction in microbial growth incubated for 48 hrs by broth microdilution method; assay type: functional
# [34] = test system: Clostridioides difficile; experiment: Antibacterial activity against Clostridioides difficile NR-49286 assessed as reduction in microbial growth incubated for 48 hrs by broth microdilution method; assay type: functional
# [35] = test system: Bifidobacterium angulatum; experiment: Antibacterial activity against Bifidobacterium angulatum HM 1189 assessed as reduction in microbial growth incubated for 48 hrs by broth microdilution method; assay type: functional
# [36] = test system: Bifidobacterium breve; experiment: Antibacterial activity against Bifidobacterium breve HM1120 assessed as reduction in microbial growth incubated for 48 hrs by broth microdilution method; assay type: functional
# [37] = test system: Clostridioides difficile; experiment: Antibacterial activity against Clostridioides difficile ATCC 43255 assessed as reduction in microbial growth incubated for 48 hrs by broth microdilution method; assay type: functional
# [38] = test system: Clostridioides difficile; experiment: Bactericidal activity against Clostridioides difficile NR-32904 assessed as reduction in microbial growth by broth microdilution method; assay type: functional
# [39] = test system: Clostridioides difficile; experiment: Selectivity ratio of MBC for antibacterial activity against Clostridioides difficile ATCC BAA1870 to MIC for antibacterial activity against Clostridioides difficile ATCC BAA1870; assay type: functional
# [40] = test system: Clostridioides difficile; experiment: Antibacterial activity against Clostridioides difficile NR-49294 assessed as reduction in microbial growth incubated for 48 hrs by broth microdilution method; assay type: functional
# [41] = test system: Clostridioides difficile; experiment: Antibacterial activity against Clostridioides difficile NR-32904 assessed as reduction in microbial growth incubated for 48 hrs by broth microdilution method; assay type: functional
# [42] = test system: Clostridioides difficile; experiment: Antibacterial activity against Clostridioides difficile NR-49287 assessed as reduction in microbial growth incubated for 48 hrs by broth microdilution method; assay type: functional
# [43] = test system: Bacteroides fragilis; experiment: Antibacterial activity against Bacteroides fragilis HM 718 assessed as reduction in microbial growth incubated for 48 hrs by broth microdilution method; assay type: functional
smiles,measurement,setting,value
O=C(Nc1ncc([N+](=O)[O-])s1)C1CN(c2cccc(Cl)c2)N(c2cccc(Cl)c2)C1=O (stereo unspecified),MIC,[1],> 64 µg/mL
same,MIC,[2],0.5 µg/mL
same,MIC,[3],16 µg/mL
same,IC50,[4],9.8 µM
same,MIC,[5],0.5 µg/mL
same,MIC,[6],0.5 µg/mL
same,MIC,[7],> 40 µM
same,MIC,[8],0.5 µg/mL
same,MIC,[9],1 µg/mL
same,MIC,[10],0.25 µg/mL
same,MIC,[11],4 µg/mL
same,MIC,[12],0.5 µg/mL
same,MIC,[13],8 µg/mL
same,MIC,[14],0.25 µg/mL
same,MIC,[15],0.5 µg/mL
same,Ratio,[16],1
same,MIC,[17],4 µg/mL
same,MIC,[18],4 µg/mL
same,MIC,[19],> 64 µg/mL
same,Stability,[20],Stable
same,MIC,[21],> 64 µg/mL
same,MIC,[22],0.5 µg/mL
same,MIC,[23],10 µM
same,MBC,[24],0.5 µg/mL
same,inhibition,[25],67.6%
same,MBC,[26],1 µg/mL
same,MIC,[27],4 µg/mL
same,Ratio,[28],1
same,MBC,[29],0.25 µg/mL
same,MIC,[30],0.5 µg/mL
same,MIC,[31],4 µg/mL
same,MIC,[32],0.5 µg/mL
same,MIC,[33],> 64 µg/mL
same,MIC,[34],0.5 µg/mL
same,MIC,[35],32 µg/mL
same,MIC,[36],64 µg/mL
same,MIC,[37],0.125 µg/mL
same,MBC,[38],1 µg/mL
same,Ratio,[39],1
same,MIC,[40],0.5 µg/mL
same,MIC,[41],0.5 µg/mL
same,MIC,[42],0.5 µg/mL
same,MIC,[43],8 µg/mL
O=C(Nc1ncc([N+](=O)[O-])s1)C1CN(c2ccc(Cl)cc2)N(c2ccc(Cl)cc2)C1=O (stereo unspecified),MIC,[1],> 64 µg/mL
same,MIC,[2],0.5 µg/mL
same,MIC,[3],32 µg/mL
same,IC50,[4],10.2 µM
same,MIC,[5],1 µg/mL
same,MIC,[6],0.5 µg/mL
same,MIC,[7],> 40 µM
same,MIC,[8],1 µg/mL
same,MIC,[9],1 µg/mL
same,MIC,[10],0.5 µg/mL
same,MIC,[11],8 µg/mL
same,MIC,[12],1 µg/mL
same,MIC,[13],4 µg/mL
same,MIC,[14],0.25 µg/mL
same,MIC,[15],0.5 µg/mL
same,Ratio,[16],1
same,MIC,[17],4 µg/mL
same,MIC,[18],> 64 µg/mL
same,MIC,[19],> 64 µg/mL
same,Stability,[20],Stable
same,MIC,[21],> 64 µg/mL
same,MIC,[22],0.25 µg/mL
same,MIC,[23],10 µM
same,MBC,[24],0.5 µg/mL
same,inhibition,[25],70.2%
same,MBC,[26],1 µg/mL
same,MIC,[27],64 µg/mL
same,Ratio,[28],1
same,MBC,[29],0.5 µg/mL
same,MIC,[30],0.5 µg/mL
same,MIC,[31],32 µg/mL
same,MIC,[32],0.5 µg/mL
same,MIC,[33],> 64 µg/mL
same,MIC,[34],0.5 µg/mL
same,MIC,[35],> 64 µg/mL
same,MIC,[36],> 64 µg/mL
same,MIC,[37],0.25 µg/mL
same,MBC,[38],1 µg/mL
same,Ratio,[39],1
same,MIC,[40],0.5 µg/mL
same,MIC,[41],0.5 µg/mL
same,MIC,[42],0.5 µg/mL
same,MIC,[43],8 µg/mL
